Experimental data reported in patent publication US8748111B2, “Multiplexed olfactory receptor-based microsurface plasmon polariton detector” (Massachusetts Institute of Technology, priority 2008, dated 2014).
Several values for one entry are separate records, joined by “and”; a condition that tells them apart may be missing. Equal entries are not always repeated. Entries after “also recorded” stand apart in the source; their conditions may differ.

How the values were obtained:
hOR17-4 [1] = target: T1, hOR17-4 (Homo sapiens, UniProt P34982, R25Q); experiment: Intracellular calcium-ion mobility assay in induced HEK293S cells; assay type: cell-based; parameters: of which 969 by code for the 323 amino acid hOR17-4-GlyGly-rho1D4 protein; made in house; conditions: for cytosolic Ca2+ response to odorant: Fura-Red
T1 sequence (P34982 with tags, fused parts or gaps R25Q): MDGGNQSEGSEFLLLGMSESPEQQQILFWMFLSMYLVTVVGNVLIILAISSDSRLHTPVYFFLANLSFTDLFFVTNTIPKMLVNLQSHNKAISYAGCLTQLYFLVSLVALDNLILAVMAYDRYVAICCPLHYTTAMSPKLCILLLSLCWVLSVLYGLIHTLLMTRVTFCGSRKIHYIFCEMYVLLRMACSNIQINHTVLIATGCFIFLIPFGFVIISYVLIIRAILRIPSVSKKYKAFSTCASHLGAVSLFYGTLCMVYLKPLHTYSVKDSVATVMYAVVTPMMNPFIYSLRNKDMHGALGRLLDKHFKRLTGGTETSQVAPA
Description: To determine if receptors expressed at the surface of induced HEK293S rho5 cells was functional, we performed calcium-influx assays. In our heterologous HEK293S system, olfactory receptors can signal through the inositol triphosphate (IP3) pathway to release intracellular Ca2+, using the “promiscuous” G-protein Gαq.
HEK293S rho5 cells were seeded and grown on glass coverslips until they reached 80-90% confluency. Expression of hOR17-4 was then induced with media containing tetracycline (1 μg/ml) for 48 hours. Cells were then washed with PBS and loaded with the calcium sensitive dye Fluo-3 (Invitrogen) according to the manufacturers instructions. Coverslips were then mounted and visualized using time-lapse confocal microscopy. Experiments were conducted in PBS and odorant stocks were added by hand using a pipettor to final concentrations between 1-100 μM. Both specific and non-specific odorants were tested. As an additional control to test whether cells could increase internal calcium levels, 1 mM ATP was added.
The functional activity and specificity of hOR17-4 was probed in heterologous HEK293S cells by monitoring intracellular calcium-ion concentrations using time-lapse confocal microscopy (19). In our HEK293S cells, olfactory receptors can signal through the inositol triphosphate (IP3) pathway to release intracellular Ca^2+ from the ER, mediated by the “promiscuous” G-protein Gαq. Induced cells responded to the specific odorant bourgeonal at concentrations as low as 1 μM (FIG. 28). […] Importantly, nearly 100% of the cells were responsive to bourgeonal due to the stable-inducible nature of this system, a vast improvement over expression methods that relied on transient transfection with less than 5% of cells being responsive (3).
hOR17-4 expression in the stable HEK293S cell line was induced by 48-hour incubation in DMEM/F12 medium with GlutaMAX, supplemented with 1 μg/ml tetracycline. Then cells were loaded at 37° C. for 30 min with […] Fura-Red-AM (Molecular Probes) in serum-free DMEM/F12 medium and were subsequently washed with PBS and incubated in DMEM/F12 medium containing 10% FCS for 30 min to allow complete hydrolysis of intracellular Fura-Red-AM. Cytosolic Ca^2+ responses were recorded by confocal fluorescence microscopy (Zeiss LSM 510) using a water immersion objective (Zeiss Achroplan 63×, NA 1.2). Excitation was at 488 nm (Ar^+ laser); the 650 nm long pass emission filter was used to image Fura-Red at a rate of 1 image per second. Stock solutions of the tested odorants were prepared freshly in DMSO and diluted 1000-fold into PBS to give the desired concentrations.

hOR17-4 [2] = target: T1, hOR17-4; experiment: Surface plasmon resonance (Biacore A100) odorant binding assay, detergent-solubilized receptor from HEK293S cells; parameters: of which 969 by code for the 323 amino acid hOR17-4-GlyGly-rho1D4 protein; made in house; lysate supernatant captured on the chip; conditions: not rigorously determined due to low odorant solubility above 40 μM
Description: First, the rho1D4 mAb was covalently attached to the dextran surface of a Biacore CM4 chip using standard amine-coupling chemistry. The hOR17-4 receptor protein was then non-covalently captured on the antibody via its C-terminal rho tag (TETSQVAPA (SEQ ID NO: 50)). Odorant ligands were then applied and odorant binding detected in real time via the mass-based refractive index change. […] Low affinity Biacore data is typically characterized by fast on- and off-rates, where curvature in the association and dissociation phase may not be observable. […] However, the sensorgram data shown reinforces the prediction of low, micromolar affinities for the two odorants.
All odorant binding experiments were performed at 25° C. on a Biacore™ A100 (GE Healthcare), which has a parallel flow configuration, allowing assay development (e.g., solubilization conditions) to be tested and optimized in parallel and multiplexed format. The sensor chip CM4, amine-coupling kit, HBS (10 mM Hepes, 0.15 M NaCl, pH 7.4) and PBS were from GE Healthcare. The detailed protocol (see Supporting Information) was adapted, with several key modifications, from that previously reported by Kaiser et al. (25). […]

hOR17-4 [3] = target: T2, hOR17-4 (Homo sapiens, UniProt P34982); experiment: Surface plasmon resonance (Biacore T100) odorant binding assay, cell-free produced receptor
T2 construct: made in house; host or cells: wheat germ cell-free extract (Roche RTS Wheat Germ CECF kit)
T2 sequence (P34982 1-312): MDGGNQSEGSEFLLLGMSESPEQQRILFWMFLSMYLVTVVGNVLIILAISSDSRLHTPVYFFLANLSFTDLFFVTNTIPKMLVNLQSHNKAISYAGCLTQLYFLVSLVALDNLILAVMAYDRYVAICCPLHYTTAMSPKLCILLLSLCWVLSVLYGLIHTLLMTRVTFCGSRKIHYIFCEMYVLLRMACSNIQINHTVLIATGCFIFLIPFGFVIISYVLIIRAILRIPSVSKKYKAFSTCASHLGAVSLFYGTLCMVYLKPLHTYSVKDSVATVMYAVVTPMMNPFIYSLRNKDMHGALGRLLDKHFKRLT
Description: All odorant binding experiments were performed on a Biacore™ T100 (GE Healthcare, Uppsala, Sweden) at 25° C. The sensor chip CM4, amine coupling kit, HBS (10 mM Hepes, 0.15 M NaCl, pH 7.4) and PBS were from (GE Healthcare, Uppsala, Sweden).
A anti His-tag antibody (R&D Systems, Minneapolis, Minn., USA) at 5 μg/ml in 10 mM sodium acetate pH 4.75 was immobilized onto a series S sensor chip using standard amine-coupling chemistry in HBS running buffer at 10 μl/min (33). The amount of coupled antibody was about 13000 RU. Control surfaces were prepared similarly without protein derivatization and utilized as a reference surfaces for compound binding experiments. Cell-free lysate containing the expressed olfactory receptor was centrifuged for […] at 14000×g at 4° C., to remove larger particles. The supernatant, containing about 0.6 mg/ml olfactory receptor, was immediately captured on the surface plasmon resonance (SPR) chip using PBS and 3% (v/v) DMSO as running buffer at 10 μl/min. […] A 30 sec pulse of coupling reagents was injected to achieve the stable baseline needed for the kinetic assay.
Fresh odorant undecanal solutions were made as follows. Pure odorant was diluted in DMSO to 0.5 M. This solution was diluted 33.3 times in PBS to obtain a […] odorant solution in running buffer with 3% (v/v) DMSO. […]

[4] = tetracycline-induced HEK293S cells

Row | SMILES | cytosolic Ca2+ response to odorant (hOR17-4 [1]; [4]) | equilibrium dissociation constant (hOR17-4 [2]) | other results
1 | C/C=C/c1ccc(OC)cc1 [anithole] | No response | – | –
2 | CCc1ccc(CC(C)(C)C=O)cc1 [floralozone] | – | low micromolar range | –
3 | CC(C=O)Cc1ccc(C(C)(C)C)cc1 (stereo not shown) [lilial] | – | low micromolar range | –
4 | CCCCCCCCCCC=O [undecanal] | – | – | inhibition of bourgeonal-induced hOR17-4 activation (hOR17-4 [1]; preincubation and co-application of 100 μM with bourgeonal 100 μM): Odorant response could be blocked; also recorded: inhibited hOR17-4 activation by bourgeonal; Kd (hOR17-4 [3]; equilibrium binding responses vs concentration fitted to a simple binding isotherm, 25° C., 3% DMSO, read-out: affinity constant, KD): 22 µM and ~22 µM; dose response binding (RU) (hOR17-4 [3]; injections at 1.2, 3.7, 11, 33 and 100 uM): binding response increases by increasing odorant concentration

Further lines, with some results ahead:

Row | cytosolic Ca2+ response to odorant (hOR17-4 [1]; [4]) | equilibrium dissociation constant (hOR17-4 [2]) | SMILES | other results
5 | transient Ca^2+ signaling | – | CC(C)(C)c1ccc(CCC=O)cc1 [bourgeonal] | cells responsive to odorant (hOR17-4 [1]; stable-inducible HEK293S cells): ~100%; lowest odorant concentration giving a Ca2+ response (hOR17-4 [1]; tetracycline-induced HEK293S cells, confocal microscopy): ≤ 1 µM
6 | No response | – | CCCCCCCC=O [octanal] | –
